Test results: EP2785358B1, “INSULIN-MIMETICS AS THERAPEUTIC ADJUNCTS FOR BONE REGENERATION” (priority 2011, dated 2013)
Like-named read-outs stand apart in the source and are kept apart here.

Legend:
[1] = test system: femur fractures; design: Percent Effective Shear Modulus / Percent Effective Shear Stress: scale not given: direction of the effect not stated beside the values; details: no carrier, 4 weeks post-fracture; for Percent Effective Shear Modulus / Percent Effective Shear Stress / Percent Maximum Torque to Failure / Percent maximum torsional rigidity: normalized to intact femur
Protocol: Torsional testing was conducted at 4 weeks post-fracture, using a servohydraulics machine (MTS Sys. Corp., Eden Prairie, MN) with a 20 Nm reaction torque cell (Interface, Scottsdale, AZ). Femurs were tested to failure at a rate of 2.0 deg/sec at four weeks post-fracture. […] In order to compare the biomechanical parameters between different groups, the data was normalized by dividing each fractured femur value by its corresponding intact, contralateral femur value. Torsional mechanical testing is limited by differences in gauge length during bone potting in Field's metal. Placement and dimension of fracture gap can contribute to standard deviations.

[2] = test system: femur fractures; details: four weeks post-fracture
Description: X-rays are taken at two-week intervals to the day of euthanasia. After euthanasia x-rays are taken as well. To take x-rays, animals will be given a half dose of anesthesia. All groups will be monitored closely for four days after surgery for infection, and the ability to ambulate freely.

[3] = test system: femur fractures
Description: The fractured femora were resected at seven and ten days post-fracture, decalcified, dehydrated, embedded in paraffin, and sectioned using standard histological techniques. Sections were stained with Masson's Trichrome (Accustain™ Trichrome Staining kit, Sigma Diagnostics, St. Louis, MO) for histological observation using an Olympus BH2-RFCA microscope (Olympus Optical Co., Ltd., Shinjuku-ku, Tokyo, Japan). Digital images were collected using a Nikon DXM1200F digital camera (Nikon, Tokyo, Japan). Cartilage, new bone, and total callus area were measured from the digital images using Image-Pro Plus software (version 5, Media Cybernetics, Inc., Silver Spring, MD). Total cartilage and new bone area were normalized to total callus area and expressed as the percent area. Two independent reviewers were used to minimize inconsistencies.

[4] = test system: posterolateral lumbar fusion (L4-L5); experiment: Spinal fusion: radiographic analysis; details: n=10, eight weeks
[5] = test system: posterolateral lumbar fusion (L4-L5); experiment: Spinal fusion: MicroCT bone volume; details: L4/L5 transverse processes and fusion mass, eight weeks
[6] = test system: posterolateral lumbar fusion (L4-L5); experiment: Spinal fusion: manual palpation; details: n=10, eight weeks
[7] = manganese chloride 0.125 mg/kg, 7 days post fracture
[8] = manganese chloride 0.125 mg/kg, 10 days post fracture
[9] = manganese chloride 0.3 mg/kg, 7 days post fracture
[10] = manganese chloride 0.3 mg/kg, 10 days post fracture
[11] = manganese chloride 0.87 mg/kg, 7 days post fracture
[12] = manganese chloride 0.87 mg/kg, 10 days post fracture
[13] = Zn-high pellet 1.0 mg/kg, listed as zinc
[14] = Zn-low pellet 0.5 mg/kg, listed as zinc

## [Cl][Mn][Cl] [MnCl2, manganese chloride]
[1]; MnCl2 0.083 mg/kg local
  Effective Shear Modulus: 8.7×10^2 ± 4.9×10^2 MPa
  Effective Shear Stress: 30 ± 8 MPa
  Maximum Torque to Failure: 272 ± 39 Nmm
  Maximum Torsional Rigidity: 2.6×10^4 ± 1.2×10^4 Nmm^2/rad
  Percent Effective Shear Modulus: 8 ± 7%
  Percent Effective Shear Stress: 8 ± 4%
  Percent Maximum Torque to Failure: 42 ± 5%
  Percent maximum torsional rigidity: 56 ± 30%
[1]; MnCl2 0.125 mg/kg local
  Effective Shear Modulus: 6.4×10^2 ± 8.8×10^1 MPa
  Effective Shear Stress: 21 ± 6 MPa
  Maximum Torque to Failure: 351 ± 59^∗ Nmm
  Maximum Torsional Rigidity: 4.2×10^4 ± 1.1×10^4 Nmm^2/rad
  Percent Effective Shear Modulus: 16 ± 11%
  Percent Effective Shear Stress: 14 ± 5%
  Percent Maximum Torque to Failure: 54 ± 5%
  Percent maximum torsional rigidity: 103 ± 40^∗ Percent
[1]; MnCl2 0.25 mg/kg local
  Effective Shear Modulus: 8.1×10^2 ± 5.0×10^2 MPa
  Effective Shear Stress: 32 ± 11 MPa
  Maximum Torque to Failure: 344 ± 84^∗ Nmm
  Maximum Torsional Rigidity: 3.4×10^4 ± 1.6×10^4 Nmm^2/rad
  Percent Effective Shear Modulus: 14 ± 9%
  Percent Effective Shear Stress: 16 ± 6%
  Percent Maximum Torque to Failure: 55 ± 19%
  Percent maximum torsional rigidity: 80 ± 34^∗ Percent
[1]; MnCl2 0.30 mg/kg local
  Effective Shear Modulus: 7.6×10^2 ± 9.2×10^2 MPa
  Effective Shear Stress: 27 ± 23 MPa
  Maximum Torque to Failure: 323 ± 135^∗ Nmm
  Maximum Torsional Rigidity: 3.0×10^4 ± 2.6×10^4 Nmm^2/rad
  Percent Effective Shear Modulus: 10 ± 12%
  Percent Effective Shear Stress: 16 ± 12%
  Percent Maximum Torque to Failure: 50 ± 22%
  Percent maximum torsional rigidity: 50 ± 37%
[1]; MnCl2 0.50 mg/kg local
  Effective Shear Modulus: 6.2×10^2 ± 3.5×10^2 MPa
  Effective Shear Stress: 19 ± 9 MPa
  Maximum Torque to Failure: 230 ± 83 Nmm
  Maximum Torsional Rigidity: 2.9×10^4 ± 1.2×10^4 Nmm^2/rad
  Percent Effective Shear Modulus: 17 ± 13%
  Percent Effective Shear Stress: 14 ± 7%
  Percent Maximum Torque to Failure: 38 ± 15%
  Percent maximum torsional rigidity: 61 ± 16%
[2]; MnCl2 0.25 mg/kg
  mineralized tissue on radiographs: increased mineralized tissue than saline controls
[2]; MnCl2 group, saline control had no evidence of union
  union on radiographs: union at the subperiosteal bony area and at the callus
[3]; [7]
  % Cartilage: 4.843 ± 2.3 n=6%
  % new bone: 15.518 ± 2.69 n=6%
[3]; [8]
  % Cartilage: 5.9 ± 4.47 n=5%
  % new bone: 14.69 ± 11.74 n=5%
[3]; [9]
  % Cartilage: 2.859 ± 1.09 n=7%
  % new bone: 15.604 ± 2.39 n=7%
[3]; [10]
  % Cartilage: 11.051 ± 3.05 n=9%
  % new bone: 18.866 ± 2.28^∗,# n=9%
[3]; [11]
  % Cartilage: 4.355 ± 3.99 n=3%
  % new bone: 16.492 ± 3.59 n=3%
[3]; [12]
  % Cartilage: 8.227 ± 2.24 n=3%
  % new bone: 15.948 ± 3.04 n=3%

## [Zn] [Zn]
[4]; Zn-high pellet 1.0 mg/kg
  Radiographs: number graded A = solid fusion mass bilaterally: 7
  Radiographs: number graded B = unilateral fusion mass: 3
  Radiographs: number graded C = small fusion mass bilaterally: 0
  Radiographs: number graded D = Graft resorption: 0
[4]; [13]
  Radiographs: number graded A = solid fusion mass bilaterally: 7/10
  Radiographs: number graded B = unilateral fusion mass: 3/10
  Radiographs: number graded C = small fusion mass bilaterally: 0/10
  Radiographs: number graded D = Graft resorption: 0/10
[4]; Zn-low pellet 0.5 mg/kg
  Radiographs: number graded A = solid fusion mass bilaterally: 7
  Radiographs: number graded B = unilateral fusion mass: 1
  Radiographs: number graded C = small fusion mass bilaterally: 2
  Radiographs: number graded D = Graft resorption: 0
[4]; [14]
  Radiographs: number graded A = solid fusion mass bilaterally: 7/10
  Radiographs: number graded B = unilateral fusion mass: 1/10
  Radiographs: number graded C = small fusion mass bilaterally: 2/10
  Radiographs: number graded D = Graft resorption: 0/10
[5]; Zn high dose pellet (1.0 mg/kg)
  Mean Bone Volume: 172.7 mm^3
[5]; Zn low dose pellet (0.5 mg/kg)
  Mean Bone Volume: 172.9 mm^3
[6]; Zn-high pellet 1.0 mg/kg
  Manual palpation: number graded A = fused: 4
  Manual palpation: number graded B = partially fused: 1
  Manual palpation: number graded C = not fused: 5
[6]; [13]
  Manual palpation: number graded A = fused: 4/10
  Manual palpation: number graded B = partially fused: 1/10
  Manual palpation: number graded C = not fused: 5/10
[6]; Zn-low pellet 0.5 mg/kg
  Manual palpation: number graded A = fused: 3
  Manual palpation: number graded B = partially fused: 4
  Manual palpation: number graded C = not fused: 3
[6]; [14]
  Manual palpation: number graded A = fused: 3/10
  Manual palpation: number graded B = partially fused: 4/10
  Manual palpation: number graded C = not fused: 3/10
